From PMC4234429 (Journal of Medicinal Chemistry, 2014)
Bridge positions count the residues as written; N and C are the ends. Square brackets hold non-standard residues; d marks the D form. Peptide text beside a SMILES is read from it. Nle = CCCC[C@H](N)C(=O)O; βAla = NCCC(=O)O

assay: RP-HPLC capacity factor; format: physicochemical; conditions: Grace Vydac C-18, 20 min gradient of 18–28% acetonitrile in 20 mM HCl, 1 mL/min

Row | capacity factor (k′) | Compound
1 | 1.35 | CC(C)[C@H](NC(=O)[C@@H]1CCCN1C(=O)[C@H](CCCNC(=N)N)NC(=O)[C@H](CS)NC(=O)[C@H](Cc1c[nH]c2ccccc12)NC(=O)[C@H](CCCNC(=N)N)NC(=O)[C@@H](Cc1ccccc1)NC(=O)[C@H](Cc1c[nH]cn1)NC(=O)[C@H](CCC(=O)O)NC(=O)[C@H](CS)NC(=O)[C@H](CS)NC(=O)CCNC(=O)[C@@H]1CC(=O)N[C@@H](CCCNC(=N)N)C(=O)N[C@@H](CO)C(=O)N[C@@H](CC(=O)O)C(=O)N[C@H](Cc2ccc(O)cc2)C(=O)N1)C(N)=O [peptide 1, RSD-β-Ala-(Arg^11)CCMSH] (RSD[dY]D[βAla]CCEH[dF]RWCRPV-NH2; lactam N-5)
2 | 0.98 | CC(C)[C@H](NC(=O)[C@@H]1CCCN1C(=O)[C@H](CCCNC(=N)N)NC(=O)[C@H](CS)NC(=O)[C@H](Cc1c[nH]c2ccccc12)NC(=O)[C@H](CCCNC(=N)N)NC(=O)[C@@H](Cc1ccccc1)NC(=O)[C@H](Cc1c[nH]cn1)NC(=O)[C@H](CCC(=O)O)NC(=O)[C@H](CS)NC(=O)[C@H](CS)NC(=O)CCNC(=O)[C@@H]1CC(=O)N[C@@H](CCCNC(=N)N)C(=O)N[C@@H]([C@@H](C)O)C(=O)N[C@@H](CC(=O)O)C(=O)N[C@H](Cc2ccc(O)cc2)C(=O)N1)C(N)=O [peptide 2, RTD-β-Ala-(Arg^11)CCMSH] (RTD[dY]D[βAla]CCEH[dF]RWCRPV-NH2; lactam N-5)
3 | 1.94 | CC(C)[C@H](NC(=O)[C@@H]1CCCN1C(=O)[C@H](CCCNC(=N)N)NC(=O)[C@H](CS)NC(=O)[C@H](Cc1c[nH]c2ccccc12)NC(=O)[C@H](CCCNC(=N)N)NC(=O)[C@@H](Cc1ccccc1)NC(=O)[C@H](Cc1c[nH]cn1)NC(=O)[C@H](CCC(=O)O)NC(=O)[C@H](CS)NC(=O)[C@H](CS)NC(=O)CCNC(=O)[C@@H]1CC(=O)N[C@@H](CCCNC(=N)N)C(=O)N[C@@H](C(C)C)C(=O)N[C@@H](CC(=O)O)C(=O)N[C@H](Cc2ccc(O)cc2)C(=O)N1)C(N)=O [peptide 3, RVD-β-Ala-(Arg^11)CCMSH] (RVD[dY]D[βAla]CCEH[dF]RWCRPV-NH2; lactam N-5)
4 | 3.32 | CC(C)[C@H](NC(=O)[C@@H]1CCCN1C(=O)[C@H](CCCNC(=N)N)NC(=O)[C@H](CS)NC(=O)[C@H](Cc1c[nH]c2ccccc12)NC(=O)[C@H](CCCNC(=N)N)NC(=O)[C@@H](Cc1ccccc1)NC(=O)[C@H](Cc1c[nH]cn1)NC(=O)[C@H](CCC(=O)O)NC(=O)[C@H](CS)NC(=O)[C@H](CS)NC(=O)CCNC(=O)[C@@H]1CC(=O)N[C@@H](CCCNC(=N)N)C(=O)N[C@@H](C)C(=O)N[C@@H](CC(=O)O)C(=O)N[C@H](Cc2ccc(O)cc2)C(=O)N1)C(N)=O [peptide 4, RAD-β-Ala-(Arg^11)CCMSH] (RAD[dY]D[βAla]CCEH[dF]RWCRPV-NH2; lactam N-5)
5 | 3.17 | CCCC[C@@H]1NC(=O)C[C@@H](C(=O)NCCC(=O)N[C@@H](CS)C(=O)N[C@@H](CS)C(=O)N[C@@H](CCC(=O)O)C(=O)N[C@@H](Cc2c[nH]cn2)C(=O)N[C@H](Cc2ccccc2)C(=O)N[C@@H](CCCNC(=N)N)C(=O)N[C@@H](Cc2c[nH]c3ccccc23)C(=O)N[C@@H](CS)C(=O)N[C@@H](CCCNC(=N)N)C(=O)N2CCC[C@H]2C(=O)N[C@H](C(N)=O)C(C)C)NC(=O)[C@@H](Cc2ccc(O)cc2)NC(=O)[C@H](CC(=O)O)NC(=O)[C@H](C)NC1=O [peptide 5, NAD-β-Ala-(Arg^11)CCMSH] ([Nle]AD[dY]D[βAla]CCEH[dF]RWCRPV-NH2; lactam N-5)
6 | 2.28 | CC(C)[C@H](NC(=O)[C@@H]1CCCN1C(=O)[C@H](CCCNC(=N)N)NC(=O)[C@H](CS)NC(=O)[C@H](Cc1c[nH]c2ccccc12)NC(=O)[C@H](CCCNC(=N)N)NC(=O)[C@@H](Cc1ccccc1)NC(=O)[C@H](Cc1c[nH]cn1)NC(=O)[C@H](CCC(=O)O)NC(=O)[C@H](CS)NC(=O)[C@H](CS)NC(=O)CCNC(=O)[C@@H]1CC(=O)N[C@@H](CCC(=O)O)C(=O)N[C@@H](C)C(=O)N[C@@H](CC(=O)O)C(=O)N[C@H](Cc2ccc(O)cc2)C(=O)N1)C(N)=O [peptide 6, EAD-β-Ala-(Arg^11)CCMSH] (EAD[dY]D[βAla]CCEH[dF]RWCRPV-NH2; lactam N-5)
